Laboratory results as given in PubChem BioAssay AID212 (DTP/NCI, 2004).
Several values for one entry are separate records, joined by “and”; a condition that tells them apart may be missing. Equal values may be shown once. Results filed as inconclusive are left out.

Tested on: BDF1 mice, colon carcinoma 38 sc, T/C %
Assay: NCI In Vivo Anticancer Drug Screen. Data for tumor model Colon Carcinoma 38 (subcutaneous) in B6D2F1 (BDF1) mice
Details: endpoint: median tumor weight (est.), higher = larger tumour
In short: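 Mice with transplanted tumors are treated with compound or vehicle. Survival or tumor size is then measured in both groups. The ratio of treated to control gives the reported figure.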

[1] = dose: 50.0 mg/kg/injection, schedule: Q07DX002 (ip), vehicle: water
[2] = dose: 100.0 mg/kg/injection, schedule: Q07DX002 (ip), vehicle: water
[3] = dose: 200.0 mg/kg/injection, schedule: Q07DX002 (ip), vehicle: water
[4] = dose: 400.0 mg/kg/injection, schedule: Q07DX002 (ip), vehicle: water
[5] = dose: 12.5 mg/kg/injection, schedule: Q07DX002 (ip), vehicle: saline with Tween-80
[6] = dose: 25.0 mg/kg/injection, schedule: Q07DX002 (ip), vehicle: saline with Tween-80
[7] = dose: 50.0 mg/kg/injection, schedule: Q07DX002 (ip), vehicle: saline with Tween-80
[8] = dose: 100.0 mg/kg/injection, schedule: Q07DX002 (ip), vehicle: saline with Tween-80
[9] = dose: 200.0 mg/kg/injection, schedule: Q07DX002 (ip), vehicle: saline with Tween-80
[10] = dose: 400.0 mg/kg/injection, schedule: Q07DX002 (ip), vehicle: saline with Tween-80
[11] = dose: 25.0 mg/kg/injection, schedule: Q07DX002 (ip), vehicle: saline
[12] = dose: 50.0 mg/kg/injection, schedule: Q07DX002 (ip), vehicle: saline
[13] = dose: 200.0 mg/kg/injection, schedule: Q07DX002 (ip), vehicle: saline
[14] = dose: 100.0 mg/kg/injection, schedule: Q07DX002 (ip), vehicle: saline
[15] = dose: 400.0 mg/kg/injection, schedule: Q07DX002 (ip), vehicle: saline
[16] = dose: 800.0 mg/kg/injection, schedule: Q07DX002 (ip), vehicle: saline with Tween-80

In the case of `N#CC(OC1OC(COC2OC(CO)C(O)C(O)C2O)C(O)C(O)C1O)c1ccccc1` (stereo not given), the T/C [1] is reported as 98 % of control, the T/C [2] is reported as 87 % of control and the T/C [3] is reported as 112 % of control. The T/C [4] was 102 % of control and the T/C (dose: 1600.0 mg/kg/injection, schedule: Q07DX002 (ip), vehicle: water) was 91 % of control.

In the case of `CCCCCCCCCCCCCCCCS(=O)CC(O)COC(=O)c1ccc(C(=O)OCC(O)CS(=O)CCCCCCCCCCCCCCCC)cc1` (stereo not given), the T/C (dose: 12.5 mg/kg/injection, schedule: Q07DX002 (ip), vehicle: saline + alcohol) is reported as 111 % of control, the T/C (dose: 25.0 mg/kg/injection, schedule: Q07DX002 (ip), vehicle: saline + alcohol) is reported as 98 % of control and the T/C (dose: 50.0 mg/kg/injection, schedule: Q07DX002 (ip), vehicle: saline + alcohol) is reported as 98 % of control. For the same molecule, the T/C (dose: 100.0 mg/kg/injection, schedule: Q07DX002 (ip), vehicle: saline + alcohol) was 117 % of control, the T/C (dose: 200.0 mg/kg/injection, schedule: Q07DX002 (ip), vehicle: saline + alcohol) was 76 % of control and the T/C (dose: 400.0 mg/kg/injection, schedule: Q07DX002 (ip), vehicle: saline + alcohol) was 104 % of control.

With `CN(C)CCOc1ccc2c(c1)C/C(=C/c1ncc([N+](=O)[O-])n1C)C2=O` the T/C [5] was 76 % of control, the T/C [6] was 94 % of control and the T/C [7] was 106 % of control. For the same molecule, the T/C [8] was 91 % of control, the T/C [9] was 106 % of control and the T/C [10] was 50 % of control.

With `CCCCCC(=O)O[C@]1(C(C)=O)CC[C@H]2[C@@H]3CCC4=CC(=O)CC[C@]4(C)[C@H]3CC[C@@]21C` the T/C (dose: 25.0 mg/kg/injection, schedule: Q07DX003 (ip), vehicle: Klucel (hydroxypropylcellulose) (HPC)) was 78 % of control, the T/C (dose: 50.0 mg/kg/injection, schedule: Q07DX003 (ip), vehicle: Klucel (hydroxypropylcellulose) (HPC)) was 62 % of control and the T/C (dose: 100.0 mg/kg/injection, schedule: Q07DX003 (ip), vehicle: Klucel (hydroxypropylcellulose) (HPC)) was 81 % of control. The T/C (dose: 200.0 mg/kg/injection, schedule: Q07DX003 (ip), vehicle: Klucel (hydroxypropylcellulose) (HPC)) was 82 % of control and the T/C (dose: 400.0 mg/kg/injection, schedule: Q07DX003 (ip), vehicle: Klucel (hydroxypropylcellulose) (HPC)) was 49 % of control.

In the case of `C=CC(C)(C)n1cc(C2=C(O)C(=O)C(c3cn(C(C)(C)C=C)c4ccccc34)=C(O)C2=O)c2ccccc21`, the T/C (dose: 5.0 mg/kg/injection, schedule: Q07DX002 (ip), vehicle: Klucel (hydroxypropylcellulose) (HPC)) is reported as 67 % of control and 79 % of control, the T/C (dose: 10.0 mg/kg/injection, schedule: Q07DX002 (ip), vehicle: Klucel (hydroxypropylcellulose) (HPC)) is reported as 66 % of control and 82 % of control and the T/C (dose: 20.0 mg/kg/injection, schedule: Q07DX002 (ip), vehicle: DMSO) is reported as 87 % of control. For the same molecule, the T/C (dose: 40.0 mg/kg/injection, schedule: Q07DX002 (ip), vehicle: DMSO) was 101 % of control, the T/C (dose: 80.0 mg/kg/injection, schedule: Q07DX002 (ip), vehicle: DMSO) was 41 % of control and the T/C (dose: 80.0 mg/kg/injection, schedule: Q07DX002 (ip), vehicle: Klucel (hydroxypropylcellulose) (HPC)) was 79 % of control and 81 % of control. The T/C (dose: 160.0 mg/kg/injection, schedule: Q07DX002 (ip), vehicle: Klucel (hydroxypropylcellulose) (HPC)) was 57 % of control and 70 % of control.

`C(CSC1=NCCN1)CSC1=NCCN1` was tested, and the T/C [11] was 112 % of control, the T/C [12] was 96 % of control and the T/C [13] was 120 % of control.

With `O=C(Nc1ccc(Cl)c(Cl)c1)Nc1c(Oc2ccc(Cl)c(Cl)c2)ccc(Cl)c1S(=O)(=O)O` the T/C (dose: 6.25 mg/kg/injection, schedule: Q07DX002 (ip), vehicle: Klucel (hydroxypropylcellulose) (HPC)) was 167 % of control, the T/C (dose: 12.5 mg/kg/injection, schedule: Q07DX002 (ip), vehicle: Klucel (hydroxypropylcellulose) (HPC)) was 103 % of control and the T/C (dose: 100.0 mg/kg/injection, schedule: Q07DX002 (ip), vehicle: Klucel (hydroxypropylcellulose) (HPC)) was 119 % of control. The T/C (dose: 200.0 mg/kg/injection, schedule: Q07DX002 (ip), vehicle: Klucel (hydroxypropylcellulose) (HPC)) was 66 % of control.

For `NC(=O)c1c[se]c(C2OC(CO)C(O)C2O)n1` (stereo not given), the T/C (dose: 25.0 mg/kg/injection, schedule: Q07DX002 (ip), vehicle: water) was 56 % of control, the T/C [12] was 79 % of control and the T/C [1] was 74 % of control. For the same molecule, the T/C [14] was 89 % of control, the T/C [2] was 44 % of control and the T/C [13] was 73 % of control. For the same molecule, the T/C [3] was 42 % of control, the T/C [15] was 74 % of control and the T/C [4] was 40 % of control. The T/C (dose: 800.0 mg/kg/injection, schedule: Q07DX002 (ip), vehicle: saline) was 90 % of control.

With `CC(=O)Nc1ccc(O)c(O)c1` the T/C [5] was 112 % of control, the T/C [6] was 86 % of control and the T/C [7] was 100 % of control and 102 % of control. For the same molecule, the T/C [8] was 66 % of control and 83 % of control, the T/C [9] was 90 % of control and 95 % of control and the T/C [10] was 74 % of control and 75 % of control and 86 % of control. The T/C [16] was 72 % of control.

With `CC(Oc1ccccc1-c1ccccc1)C(=O)N(C)C` (stereo not given) the T/C [8] was 79 % of control and 82 % of control, the T/C [9] was 74 % of control and 78 % of control and the T/C [10] was 56 % of control and 75 % of control. The T/C [16] was 49 % of control and 68 % of control.

In the case of `C1CN1c1nc(N2CC2)nc(N2CC2)n1`, the T/C (dose: 0.25 mg/kg/injection, schedule: Q07DX003 (ip), vehicle: saline) is reported as 30 % of control, the T/C (dose: 0.5 mg/kg/injection, schedule: Q07DX003 (ip), vehicle: saline) is reported as 43 % of control and the T/C (dose: 1.0 mg/kg/injection, schedule: Q07DX003 (ip), vehicle: saline) is reported as 36 % of control.

`COc1ccc(C2Oc3cc(OC)ccc3C(=O)C2c2ccccc2)cc1` (stereo not given) was tested, and the T/C (dose: 43.0 mg/kg/injection, schedule: Q07DX002 (ip), vehicle: other) was 35 % of control, the T/C (dose: 72.0 mg/kg/injection, schedule: Q07DX002 (ip), vehicle: other) was 56 % of control and the T/C (dose: 120.0 mg/kg/injection, schedule: Q07DX002 (ip), vehicle: other) was 41 % of control. For the same molecule, the T/C (dose: 200.0 mg/kg/injection, schedule: Q07DX002 (ip), vehicle: other) was 34 % of control and the T/C (dose: 333.33 mg/kg/injection, schedule: Q07DX002 (ip), vehicle: other) was 82 % of control.

`O=C(CO)c1ccc([N+](=O)[O-])cc1` was tested, and the T/C (dose: 6.25 mg/kg/injection, schedule: Q07DX002 (ip), vehicle: saline with Tween-80) was 72 % of control, the T/C [5] was 105 % of control and the T/C [6] was 90 % of control. The T/C [8] was 97 % of control and the T/C [9] was 80 % of control.

`COc1cc(C)c2c(c1C=O)Oc1c(c(C)c(O)c3c1C(O)OC3=O)OC2=O` (stereo not given) was tested, and the T/C (dose: 3.12 mg/kg/injection, schedule: Q07DX003 (ip), vehicle: suspension in saline) was 93 % of control, the T/C (dose: 6.25 mg/kg/injection, schedule: Q07DX003 (ip), vehicle: suspension in saline) was 60 % of control and the T/C (dose: 12.5 mg/kg/injection, schedule: Q07DX003 (ip), vehicle: suspension in saline) was 65 % of control. The T/C (dose: 25.0 mg/kg/injection, schedule: Q07DX003 (ip), vehicle: suspension in saline) was 93 % of control and the T/C (dose: 50.0 mg/kg/injection, schedule: Q07DX003 (ip), vehicle: suspension in saline) was 87 % of control.

In the case of `COC(=O)CC(N)C(=O)O` (stereo not given), the T/C [11] is reported as 95 % of control, the T/C [12] is reported as 70 % of control and the T/C [14] is reported as 86 % of control. For the same molecule, the T/C [13] was 61 % of control and the T/C [15] was 50 % of control.

`CC(/C=C/c1ccccc1)=Nc1ccccc1` was tested, and the T/C [6] was 40 % of control, the T/C [7] was 110 % of control and the T/C [8] was 92 % of control. The T/C [10] was 185 % of control.

In the case of `CC1=C(C)C(=O)O[C@@H]([C@](C)(O)[C@]2(O)CC[C@@]3(O)[C@@H]4C[C@H]5O[C@]56CC=CC(=O)[C@]6(C)[C@H]4CC[C@]23C)C1`, the T/C (dose: 12.5 mg/kg/injection, schedule: Q07DX002 (ip), vehicle: saline) is reported as 110 % of control, the T/C [11] is reported as 96 % of control and the T/C (dose: 28.1 mg/kg/injection, schedule: Q07DX002 (ip), vehicle: saline) is reported as 162 % of control. For the same molecule, the T/C (dose: 56.2 mg/kg/injection, schedule: Q07DX002 (ip), vehicle: saline) was 90 % of control, the T/C [14] was 117 % of control and the T/C (dose: 112.5 mg/kg/injection, schedule: Q07DX002 (ip), vehicle: saline) was 160 % of control. The T/C [13] was 83 % of control and the T/C (dose: 225.0 mg/kg/injection, schedule: Q07DX002 (ip), vehicle: saline) was 70 % of control.

With `CC(C)C(N)C(=O)Nc1nncs1` (stereo not given) the T/C [14] was 108 % of control and 98 % of control, the T/C [13] was 68 % of control and 88 % of control and the T/C [15] was 45 % of control and 48 % of control.
